The text below walks through data of article PMC2776710 (Basic research in cardiology, 2009).

The target of this assay is mitochondrial respiratory complex II (succinate-ubiquinone oxidoreductase) (Rattus norvegicus, UniProt P21913+Q641Z9+Q6PCT8).
mitochondrial respiratory complex II (succinate-ubiquinone oxidoreductase), sequence (P21913 31-282): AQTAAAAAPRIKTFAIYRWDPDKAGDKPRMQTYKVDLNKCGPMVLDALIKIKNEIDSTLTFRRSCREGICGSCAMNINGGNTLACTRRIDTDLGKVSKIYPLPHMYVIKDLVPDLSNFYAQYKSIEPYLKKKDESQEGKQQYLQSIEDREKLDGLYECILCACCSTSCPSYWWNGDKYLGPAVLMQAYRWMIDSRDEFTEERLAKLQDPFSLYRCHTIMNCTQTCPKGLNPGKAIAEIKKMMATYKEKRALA
mitochondrial respiratory complex II (succinate-ubiquinone oxidoreductase), sequence (Q641Z9 30-169): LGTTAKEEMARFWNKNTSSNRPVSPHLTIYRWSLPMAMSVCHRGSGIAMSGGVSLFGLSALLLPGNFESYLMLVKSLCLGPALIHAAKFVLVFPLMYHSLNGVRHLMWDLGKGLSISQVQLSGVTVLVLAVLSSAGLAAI
mitochondrial respiratory complex II (succinate-ubiquinone oxidoreductase), sequence (Q6PCT8 57-159): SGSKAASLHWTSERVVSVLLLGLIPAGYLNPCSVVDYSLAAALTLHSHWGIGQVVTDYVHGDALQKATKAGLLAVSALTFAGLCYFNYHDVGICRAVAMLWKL
mitochondrial respiratory complex II (succinate-ubiquinone oxidoreductase), sequence (Q920L2 35-656 partner): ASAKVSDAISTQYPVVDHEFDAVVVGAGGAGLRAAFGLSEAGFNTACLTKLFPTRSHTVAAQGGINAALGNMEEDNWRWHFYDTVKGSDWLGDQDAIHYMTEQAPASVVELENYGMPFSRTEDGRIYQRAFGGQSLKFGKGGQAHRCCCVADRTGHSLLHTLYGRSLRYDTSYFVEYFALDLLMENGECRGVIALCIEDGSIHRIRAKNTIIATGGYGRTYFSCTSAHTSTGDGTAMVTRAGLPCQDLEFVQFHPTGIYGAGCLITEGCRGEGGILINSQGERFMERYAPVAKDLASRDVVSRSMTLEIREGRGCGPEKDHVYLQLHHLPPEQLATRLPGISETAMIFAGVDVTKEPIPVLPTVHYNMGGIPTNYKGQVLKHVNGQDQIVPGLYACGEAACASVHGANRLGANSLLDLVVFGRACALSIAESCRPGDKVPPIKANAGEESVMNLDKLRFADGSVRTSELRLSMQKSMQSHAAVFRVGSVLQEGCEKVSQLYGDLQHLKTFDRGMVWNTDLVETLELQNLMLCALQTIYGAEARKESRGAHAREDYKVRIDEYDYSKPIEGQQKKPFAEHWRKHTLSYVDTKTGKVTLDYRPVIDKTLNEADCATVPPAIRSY

The term IC50 denotes the concentration at which inhibition is half-maximal. Lower therefore signals inhibition by little substance. `COc1[nH]c(=O)c(C(=O)[C@@H](C)C[C@H](C)[C@@H](Cl)CCl)c(O)c1OC` [AA5, atpenin A5] registered an IC50 of 8.3 nM.
